Laboratory results taken from patent publication US20240309066A1, “MEANS AND METHODS FOR THE TREATMENT OF CALCIUM CRYSTAL DEPOSITION DISEASES” (UNIVERSITEIT MAASTRICHT, priority 2021, published 2024).
[ ]: non-standard residue; d: D form.

B1: bFetuin: bovine Fetuin (Sigma-Aldrich, #F2379), positive control for precipitation inhibition (protein, UniProt Q58D62 19-387, looked up)
Fetuin-B: TSPPQPAARPSSLLSLDCNSSYVLDIANDILQDINRDRKDGYVLSLNRVSDAREHRQEAGLGSLFYFTLDVLETGCHVLSRTSWKNCEVRIFHESVYGQCKAIFYINKEKRIFYLPAYNCTLRPVSQSAIIMTCPDCPSTSPYDLSNPRFMETATESLAKYNSESPSKQYSLVKITKTSSQWVFGPAYFVEYLIKESPCVKSEGSSCALESPGSVPVGICHGSLGEPQGNQGKIISVTCSFFNSQAPTPRGENATVNQRPANPSKTEELQQQNTAPTNSPTKAVPKGSVQYLPDWDKKREGSQEKDPVETFPVQLDLTTNPQGESLDVSFLFQEPMEEKVVVLPFPSKEQRSAECPGPAQKGYPFILPS

Legend:
[1] = In vitro calcium phosphate precipitation assay; format: biochemical; settings: for Precipitation inhibition: absorption measurement before SEM processing
Description: To evaluate the inhibitory capacity of the peptide according to SEQ ID NO: 1, we utilized a well-established in vitro calcium phosphate precipitation assay (17-19) as described in example 2.
Calcium precipitation assays were performed essentially as described before with minor adaptations (19). 2.4 mM ionic calcium (0.1M stock) was added to a 50 mM Tris/HCL buffer (pH 7.4) in 1.5 ml Eppendorf tubes. Peptide or bFetuin were added and incubated for 15 minutes at room temperature. Subsequently, 1.6 mM phosphate buffer (0.1M stock) was added and the mixture was incubated for 120 minutes at 37° C.
Data were normalized to the first positive control (normalized to 100%) in each experiment. As an internal reference for precipitation inhibition, we used 1 mg/ml, 0.5 mg/ml and 0.25 mg/ml bovine Fetuin (bFetuin, Sigma-Aldrich, #F2379) in each experiment. After 2 hours, samples were transferred to cuvettes (1.0 ml reactions) and absorbance was measured at A620 in a plate reader with a plate reader (Biorad). Each condition consisted of three biological replicates.

[2] = tested on: Human articular chondrocytes (HACs); test: ATP-induced human articular chondrocyte calcification model; format: cell-based; settings: 7 days, 1 mM ATP, 20 μM peptide, vs control with ATP
Description: (§1) FIG. 3: Inhibition of cellular calcification of human articular chondrocytes, vascular smooth muscle cells and bone marrow stromal cells by the peptide according to SEQ ID NO: 1. Representative phase-contrast microscopy images of in vivo cell assays are shown. • A) Human articular chondrocytes (HACs) were stimulated for 7 days with 1 mM ATP and with or without 20 μM of the peptide. Results were obtained from three chondrocyte donors with three biological replicates each. • B) Vascular smooth muscle cells (VSMC) were stimulated for 7 days with 4.5 mM ionic calcium in the presence or absence of 20 μM of peptide. Results were obtained from three VSMC donors with three biological replicates each. • C) BMSCs were differentiated for 21 days in osteogenic differentiation medium containing beta-glycerophosphate (BGP) in the pre- or absence of 2.1 μM of peptide. BMSC; one donor with four biological replicates was used. • Left panels: phase-contrast images were obtained at the final day of each experiment. […] Scale bars indicate 200 μm. • Right panels: quantification of total calcium precipitation per well measured with the Randox total calcium assay and normalized to total protein. […]
(§2) Quantification of deposited calcium was carried out using a calcium determination kit (Randox, London, United Kingdom) according to the manufacturer's instruction, after hydrolysis of mineral deposits in 0.1M HCl. […]

[3] = Total calcium, phosphate and protein measurements in pellets of in vitro precipitates; format: biochemical; settings: 24 hours; control 14%
Description: To test this, particles were allowed to form for 2 or 24 hours in the presence or absence (control) of bFetuin or the peptide according to SEQ ID NO: 1. and subsequently harvested by centrifugation, washed and dissolved in acid, followed by total calcium, phosphate and protein measurements in the pellet and the supernatant.
Quantification of deposited calcium was carried out using a calcium determination kit (Randox, London, United Kingdom) according to the manufacturer's instruction, after hydrolysis of mineral deposits in 0.1M HCl. Calcium measurements were normalized to protein content using micro DC Protein Assay (Termo Scientifc, Bleiswijk, the Netherlands). To be able to measure protein content, an equal amount of 0.1M NaOH was used to neutralize the acid and 0.1% SDS (final concentration) was added to lyse cells in the cellular calcification assays.
Quantification of deposited phosphate was carried out using a phosphate colorimetric assay (Sigma, MK030) according to manufacturer's instruction after solubilisation of precipitates in 0.1M HCL.

[4] = tested on: Bone marrow derived stromal cells (BMSCs); test: Beta-glycerophosphate-induced BMSC osteogenic differentiation model; format: cell-based, human; settings: 21 days osteogenic differentiation medium with BGP, 2.1 μM peptide
Description: as §1, §2

rat osteoarthritis model = test: Rat osteoarthritis model (medial meniscal tear, collateral ligament transection); format: in vivo, Lewis rats
Description: FIG. 4: Intra-articular injection of the peptide ameliorates cartilage histopathology and improves animal mobility in a rat osteoarthritis model. Osteoarthritis was induced by introducing a surgical tear of the medial meniscus and transection of the collateral ligament (N=40). Bi-weekly intra-articular injections of 50 μl peptide with a concentration of 20 μM or 50 μl vehicle (0.9% NaCl) were performed (N=20 per group). Necropsy was performed at day 28, followed by histological analyses according to the OARSI scoring system.
• A) Representative toluidine blue stained tissue sections from the best, average and worst histological appearance. Cartilage tissue is stained in dark blue. • B) The OARSI score was obtained by multiplying grade and stage of cartilage damage per animal by two blinded observers. Statistical comparison was done with a two-tailed t-test. *=p. value<0.05. • C) Gait analyses score at day 20 of the experiment. Four measurements per animal were performed and each dot represents the average of one animal in the graph. Statistical significance between groups was determined with a Mann-Whitney U test. *=p. value<0.05.
We also evaluated the effect of bi-weekly intra-articular injection of the peptide in a rat osteoarthritis model (FIG. 4). Osteoarthritis was induced with a surgical tear of the medial meniscus and transection of the collateral ligament (N=40). […]

[5] = tested on: Vascular smooth muscle cells (VSMC); test: Calcium-induced vascular smooth muscle cell calcification model; format: cell-based, human; settings: 7 days, 4.5 mM ionic calcium, 20 μM peptide
Description: as §1, with “peptide.” for “peptide. Results were obtained from three VSMC donors with three biological replicates each. • C) BMSCs were differentiated for 21 days in osteogenic differentiation medium containing beta-glycerophosphate (BGP) in the pre- or absence of 2.1 μM of peptide. BMSC; one donor with four biological replicates was used. • Left panels: phase-contrast images were obtained at the final day of each experiment.”
as §2
Human primary smooth muscle cells (VSMCs) were derived from tissue explants from patients undergoing surgery. […] Success of the isolation was determined by immunofluorescence staining for positive expression of alpha-smooth muscle actin (αSMA), smooth muscle protein 22-alpha (SM22α), phosphorylated myosin light chain 2 (pMLC) and absence of S100 C Calcium Binding Protein 4 (S100A4). […]

Molecule	Precipitation inhibition ([1]; 20 μM peptide, 2 hours) [%]	efficiency of inhibition of in vitro calcium phosphate precipitation, comparison ([1]; compared with bFetuin)	concentration range down to which activity remained ([1]; dilution series in steps of 10, 2 hours)	concentration able to statistically significantly inhibit precipitation compared to control ([1]; dilution series, 2 hours) [aM]	concentration not able to statistically significantly inhibit precipitation ([1]; dilution series, 2 hours) [aM]	inhibition of calcification [2]	phosphate content in pellet [3] [%]	inhibition of calcium precipitation [4] [%]	reduction of histopathological OA score (OARSI) (rat osteoarthritis model; day 28 post-surgery, bi-weekly intra-articular 50 μl of 20 μM, vs vehicle) [%]	animals having a normal gait (rat osteoarthritis model; gait analysis day 20, bi-weekly intra-articular 50 μl of 20 μM, vehicle 5/20)	inhibition of calcification [5]	Precipitation inhibition ([1]; 0.5 mg/ml bFetuin, 2 hours) [%]	inhibition of precipitation ([1]; 1 mg/ml (20.6 μM), positive control)	concentration at which the inhibitory effect is lost ([1]; dilution series, 2 hours, molar equivalent of μg/ml) [nM]
peptide according to SEQ ID NO: 1: circular polypeptide of 30 D-amino acids LIYRQPNCDDPETEEAALVAIDYIAPHGPG, D-Leucine at position 1 linked to D-Glycine at position 30 (cyclo([dL][dI][dY][dR][dQ][dP][dN][dC][dD][dD][dP][dE][dT][dE][dE][dA][dA][dL][dV][dA][dI][dD][dY][dI][dA][dP][dH]G[dP]G); SMILES CC[C@@H](C)[C@H]1NC(=O)[C@@H](C)NC(=O)[C@@H](C(C)C)NC(=O)[C@@H](CC(C)C)NC(=O)[C@@H](C)NC(=O)[C@@H](C)NC(=O)[C@@H](CCC(=O)O)NC(=O)[C@@H](CCC(=O)O)NC(=O)[C@@H]([C@H](C)O)NC(=O)[C@@H](CCC(=O)O)NC(=O)[C@H]2CCCN2C(=O)[C@@H](CC(=O)O)NC(=O)[C@@H](CC(=O)O)NC(=O)[C@@H](CS)NC(=O)[C@@H](CC(N)=O)NC(=O)[C@H]2CCCN2C(=O)[C@@H](CCC(N)=O)NC(=O)[C@@H](CCCNC(=N)N)NC(=O)[C@@H](Cc2ccc(O)cc2)NC(=O)[C@@H]([C@H](C)CC)NC(=O)[C@@H](CC(C)C)NC(=O)CNC(=O)[C@H]2CCCN2C(=O)CNC(=O)[C@@H](Cc2c[nH]cn2)NC(=O)[C@H]2CCCN2C(=O)[C@@H](C)NC(=O)[C@@H]([C@H](C)CC)NC(=O)[C@@H](Cc2ccc(O)cc2)NC(=O)[C@@H](CC(=O)O)NC1=O; listed as Homo Sapiens)	~50	more efficiently than bFetuin	remained active until the attomolar concentration range	20.6	2.6	22-33%	9	81	38	16/20	58-61%			
B1							9					~50	completely inhibit precipitation	20.6 to 200.6
